Patent US20040254162A1, “Oxazolidinone derivatives as antimicrobials” (priority 2001, published 2004)
In brackets after ≈: the same amount, converted by molar mass. Several values for one entry are separate records, joined by “and”; a condition that tells them apart may be missing. Equal entries are not always repeated.

Columns and labels:
[1] = tested on: Peptostreptococcus micros; assay: Agar dilution MIC, anaerobes; assay type: cell-based; conditions: single isolates, anaerobic agar dilution; listed as Quin/dal
[2] = tested on: Fusobacterium necrogenes; assay: Agar dilution MIC, anaerobes; assay type: cell-based; conditions: single isolate, anaerobic agar dilution
[3] = tested on: Porphyromonas asaccharolytica; assay: Agar dilution MIC, anaerobes; assay type: cell-based; conditions: single isolate, anaerobic agar dilution
[4] = tested on: P. acnes; assay: Agar dilution MIC, anaerobes; assay type: cell-based; conditions: single isolates, anaerobic agar dilution
[5] = tested on: Clostridium perfringens; assay: microbe, parasite or virus in culture; assay type: cell-based; conditions: single isolates, anaerobic agar dilution
[6] = tested on: Peptostreptococcus tetradius; assay: Agar dilution MIC, anaerobes; assay type: cell-based; conditions: single isolates, anaerobic agar dilution
[7] = tested on: Porphyromonas gingivalis; assay: Agar dilution MIC, anaerobes; assay type: cell-based; conditions: single isolate, anaerobic agar dilution
[8] = tested on: Prevotella bivia; assay: Agar dilution MIC, anaerobes; assay type: cell-based; conditions: single isolate, anaerobic agar dilution
[9] = tested on: Fusobacterium varium; assay: Agar dilution MIC, anaerobes; assay type: cell-based; conditions: single isolates, anaerobic agar dilution
[10] = tested on: anaerobic bacteria; assay: Agar dilution method for anaerobic bacteria, summary; assay type: cell-based; conditions: anaerobes
[11] = tested on: Clostridium difficile; assay: Agar dilution MIC, anaerobes; assay type: cell-based; conditions: single isolates, anaerobic agar dilution
[12] = tested on: Peptostreptococcus magnum; assay: Agar dilution MIC, anaerobes; assay type: cell-based; conditions: single isolates, anaerobic agar dilution
[13] = tested on: Prevotella (Bacteroides) disiens; assay: Agar dilution MIC, anaerobes; assay type: cell-based; conditions: single isolates, anaerobic agar dilution; listed as Quin/dal
[14] = tested on: Clostridium camis; assay: Agar dilution MIC, anaerobes; assay type: cell-based; conditions: single isolates, anaerobic agar dilution
[15] = tested on: Eubacterium leutum; assay: Agar dilution MIC, anaerobes; assay type: cell-based; conditions: single isolates, anaerobic agar dilution
[16] = tested on: Peptostreptococcus prevotii; assay: Agar dilution MIC, anaerobes; assay type: cell-based; conditions: single isolates, anaerobic agar dilution
[17] = tested on: Fusobacterium montiferum; assay: Agar dilution MIC, anaerobes; assay type: cell-based; conditions: single isolates, anaerobic agar dilution; listed as Quin/dal
[18] = tested on: Prevotella intermedia; assay: Agar dilution MIC, anaerobes; assay type: cell-based; conditions: single isolates, anaerobic agar dilution
[19] = tested on: Bacteroides fragilis; assay: Agar dilution MIC, anaerobes; assay type: cell-based; conditions: single isolates, anaerobic agar dilution; listed as Quin/dal
[20] = tested on: MRSE 879; assay: Broth MIC, MRSE 879; assay type: cell-based; conditions: MRSE 879
[21] = tested on: MRSE 879 adherent bacteria; assay: Sintered glass adherent bacteria model; conditions: MRSE 879, sintered glass adherent bacteria model
[22] = tested on: Prevotella melaninogenica; assay: Agar dilution MIC, anaerobes; assay type: cell-based; conditions: single isolates, anaerobic agar dilution; listed as Quin/dal
[23] = tested on: Strep. pne. ATCC 6303; assay: MIC, agar incorporation method; conditions: agar incorporation
[24] = tested on: S. aureus ATCC 25923; assay: MIC, agar incorporation method; conditions: agar incorporation
[25] = tested on: VRE 6A (Ent. faecium 6A); assay: MIC, agar incorporation method; conditions: agar incorporation
[26] = Changes in MIC under different conditions: broth MIC; assay type: cell-based; conditions: strain not given
[27] = Changes in MIC under different conditions: agar MIC; assay type: cell-based; conditions: strain not given
[28] = tested on: Ent. faecalis ATCC 29212; assay: MIC, agar incorporation method; conditions: agar incorporation
[29] = tested on: MRSA 562; assay: In vivo activity against MRSA 562 (ED50); parameters: species or system Methicillin Resistant Staphylococcus aureus; conditions: PO; MRSA 562 infection
[30] = tested on: Strep. pyog. ATCC 19615; assay: MIC, agar incorporation method; conditions: agar incorporation
[31] = tested on: MRSA 33; assay: MIC, agar incorporation method; conditions: agar incorporation
[32] = tested on: MRSA 15187; assay: MIC, agar incorporation method; conditions: agar incorporation
[33] = tested on: S. aureus; assay: Summary of in vitro activity (MIC); conditions: S. aureus; for MIC50 / MIC90: Number 8
[34] = tested on: G +ve bacteria; assay: Summary of in vitro activity (MIC); conditions: for MIC50 / MIC90: G +ve, Number 49
[35] = tested on: E. faecalis; assay: Summary of in vitro activity (MIC); conditions: E. faecalis; for MIC50 / MIC90: Number 7
[36] = tested on: S. pneum AB 34; assay: MIC, agar incorporation method; conditions: agar incorporation
[37] = tested on: S. pneumoniae; assay: Summary of in vitro activity (MIC); conditions: S. pneumoniae; for MIC50 / MIC90: Number 19
[38] = tested on: MRSA 562; assay: MIC, agar incorporation method; conditions: for MIC: MRSA 562, Table 5; for MIC MRSA 562: agar incorporation, Table 1

Compound: Synercid
- MIC Peptostreptococcus micros [1]: 0.5 µg/mL and 1 µg/mL
- MIC Fusobacterium necrogenes [2]: 0.25 µg/mL
- MIC Porphyromonas asaccharolytica [3]: <=.125 μg/ml
- MIC P. acnes [4]: <=.125 μg/ml
- MIC Clostridium perfringens [5]: 0.5 µg/mL
- MIC Peptostreptococcus tetradius [6]: 1 µg/mL
- MIC Porphyromonas gingivalis [7]: 0.25 µg/mL
- MIC Prevotella bivia [8]: 2 µg/mL
- MIC Fusobacterium varium [9]: >8 µg/mL
- Geometric Mean [10]: 1.614 µg/mL
- MIC Range [10]: 0.062 to 16 µg/mL
- MIC50 ([10]; Wilkins Chalgren agar, 48 hour): 1 µg/mL
- MIC90 ([10]; Wilkins Chalgren agar, 48 hour): 16 µg/mL
- MIC Clostridium difficile [11]: 0.5 µg/mL
- MIC Peptostreptococcus magnum [12]: 0.25 µg/mL
- MIC Prevotella (Bacteroides) disiens [13]: >8 µg/mL and 8 µg/mL
- MIC Clostridium camis [14]: 0.5 µg/mL
- MIC Eubacterium leutum [15]: 0.25 µg/mL
- MIC Peptostreptococcus prevotii [16]: 0.25 µg/mL
- MIC Fusobacterium montiferum [17]: 8 µg/mL and >8 µg/mL and 4 µg/mL
- MIC Prevotella intermedia [18]: 0.25 µg/mL
- MIC Bacteroides fragilis [19]: 8 µg/mL and >8 µg/mL
- broth MIC [20]: 0.5 µg/mL
- concentration which would kill adherent bacteria [21]: 2 µg/mL
- MIC Prevotella melaninogenica [22]: 1 µg/mL and 2 µg/mL

Compound: CC(=O)NC[C@H]1CN(c2ccc(N3CCN(C(=O)c4ccc([N+](=O)[O-])s4)CC3)c(F)c2)C(=O)O1.Cl [Compound No. 29, (S)-N[[3-[3-Fluoro-4-[N-1[4-(5-nitro-2-thienoyl)]piperazinyl]phenyl]2-oxo-5-oxazolidinyl]methyl]acetamide hydrochloride]
- MIC S. pneum 6303 [23]: 1 µg/mL
- MIC S. aureus 25923 [24]: 0.25 µg/mL
- MIC VRE 6A [25]: 0.5 µg/mL
- Broth MIC +50% Sheep serum [26]: 0.5 µg/mL
- Broth MIC Normal MH broth [26]: 0.25 µg/mL
- Agar MIC [27]: <0.1 µg/mL
- MIC E. faecalis 29212 [28]: 1 µg/mL
- ED50 (mg/kg body weight) PO [29]: >25 mg/kg body weight
- MIC S. pyogenes 19615 [30]: 1 µg/mL
- MIC MRSA 33 [31]: <0.1 µg/mL
- MIC MRSA 15187 [32]: <0.1 µg/mL
- MIC50 [33]: 0.064 µg/mL
- MIC90 [33]: 0.25 µg/mL
- MIC50 [34]: 1 µg/mL
- MIC90 [34]: 1 µg/mL
- MIC50 [35]: 1 µg/mL
- MIC90 [35]: 1 µg/mL
- MIC S. pneum AB 34 [36]: 1 µg/mL
- MIC50 [37]: 1 µg/mL
- MIC90 [37]: 1 µg/mL
- MIC [38]: <0.1 µg/mL
- MIC MRSA 562 [38]: <0.1 µg/mL

Compound: CC(=O)NC[C@H]1CN(c2ccc(N3CCC(N(C)C(=O)c4ccc([N+](=O)[O-])o4)CC3)c(F)c2)C(=O)O1 [Compound No. 44]
- MIC S. pneum 6303 [23]: 2 µg/mL (≈ 3.97 µM)
- MIC S. aureus 25923 [24]: 0.25 µg/mL (≈ 0.497 µM)
- MIC VRE 6A [25]: <0.1 µg/mL
- Broth MIC +50% Sheep serum [26]: 0.25 µg/mL
- Broth MIC Normal MH broth [26]: <0.1 µg/mL
- Agar MIC [27]: <0.1 µg/mL
- MIC E. faecalis 29212 [28]: 0.25 µg/mL (≈ 0.497 µM)
- ED50 (mg/kg body weight) PO [29]: >25 mg/kg body weight
- MIC S. pyogenes 19615 [30]: 0.5 µg/mL (≈ 0.993 µM)
- MIC MRSA 33 [31]: <0.1 µg/mL
- MIC MRSA 15187 [32]: <0.1 µg/mL
- Geometric Mean of in vitro activity (MIC) [33]: 0.11 µg/mL
- MIC50 [33]: 0.064 µg/mL (≈ 0.127 µM)
- MIC90 [33]: 0.25 µg/mL (≈ 0.497 µM)
- MIC50 [34]: 0.5 µg/mL (≈ 0.993 µM)
- MIC90 [34]: 2 µg/mL (≈ 3.97 µM)
- Geometric Mean of in vitro activity (MIC) ([34]; Gram + ve): 0.31 µg/mL
- Geometric Mean of in vitro activity (MIC) [35]: 0.11 µg/mL
- MIC50 [35]: 0.064 µg/mL (≈ 0.127 µM)
- MIC90 [35]: 0.25 µg/mL (≈ 0.497 µM)
- MIC S. pneum AB 34 [36]: 2 µg/mL (≈ 3.97 µM)
- Geometric Mean of in vitro activity (MIC) [37]: 0.96 µg/mL
- MIC50 [37]: 1 µg/mL (≈ 1.99 µM)
- MIC90 [37]: 2 µg/mL (≈ 3.97 µM)
- MIC [38]: <0.1 µg/mL
- MIC MRSA 562 [38]: <0.1 µg/mL

Compound: CC(=O)NC[C@H]1CN(c2ccc(N3CCN(C(=O)c4ccoc4)CC3)c(F)c2)C(=O)O1 [Compound No. 08, (S)-N[[3-[3-Fluoro-4-[N-1[4-(3-furoyl)]piperazinyl]phenyl]2-oxo-5-oxazolidinyl]-methyl]acetamide]
- MIC S. pneum 6303 [23]: 2 µg/mL (≈ 4.65 µM)
- MIC S. aureus 25923 [24]: 2 µg/mL (≈ 4.65 µM)
- MIC VRE 6A [25]: 1 µg/mL (≈ 2.32 µM)
- Broth MIC +50% Sheep serum [26]: 4 µg/mL
- Broth MIC Normal MH broth [26]: 2 µg/mL
- Agar MIC [27]: 1 µg/mL
- MIC E. faecalis 29212 [28]: 1 µg/mL (≈ 2.32 µM)
- ED50 (mg/kg body weight) PO [29]: 25 mg/kg body weight
- MIC S. pyogenes 19615 [30]: 1 µg/mL (≈ 2.32 µM)
- MIC MRSA 33 [31]: 1 µg/mL (≈ 2.32 µM)
- MIC MRSA 15187 [32]: 1 µg/mL (≈ 2.32 µM)
- MIC S. pneum AB 34 [36]: 4 µg/mL (≈ 9.29 µM)
- MIC [38]: 1 µg/mL (≈ 2.32 µM)
- MIC MRSA 562 [38]: 1 µg/mL (≈ 2.32 µM)
